According to ChEMBL document CHEMBL4420081, “Novel benzylamino substituted quinazolines and derivatives as sos1 inhibitors” (2018):
The source made the active and inactive calls. The calls are words filed in the database; no cut-off is given here.

What was measured:
A549 [1] = assay: Growth inhibition of human A549 cells grown under 3D anchorage-independent soft-agar conditions at 1110 nM incubated for 14 days by alamar blue dye based assay relative to control; assay type: functional; conditions: A549, 336 h, read-out: GI
A549 [2] = assay: Growth inhibition of human A549 cells grown under 3D anchorage-independent soft-agar conditions at 123 nM incubated for 14 days by alamar blue dye based assay relative to control; assay type: functional; conditions: A549, 336 h, read-out: GI
A549 [3] = assay: Growth inhibition of human A549 cells grown under 3D anchorage-independent soft-agar conditions at 3330 nM incubated for 14 days by alamar blue dye based assay relative to control; assay type: functional; conditions: A549, 336 h, read-out: GI
A549 [4] = assay: Growth inhibition of human A549 cells grown under 3D anchorage-independent soft-agar conditions at 370 nM incubated for 14 days by alamar blue dye based assay relative to control; assay type: functional; conditions: A549, 336 h, read-out: GI
A549 [5] = assay: Growth inhibition of human A549 cells grown under 3D anchorage-independent soft-agar conditions at 164 nM incubated for 14 days by alamar blue dye based assay relative to control; assay type: functional; conditions: A549, 336 h, read-out: GI
PC-9 [6] = assay: Growth inhibition of human PC9 cells grown under 3D anchorage-independent soft-agar conditions at 5.56 nM incubated for 14 days by alamar blue dye based assay relative to control; assay type: functional; conditions: PC-9, 336 h, read-out: GI
PC-9 [7] = assay: Growth inhibition of human PC9 cells grown under 3D anchorage-independent soft-agar conditions at 50 nM incubated for 14 days by alamar blue dye based assay relative to control; assay type: functional; conditions: PC-9, 336 h, read-out: GI
PC-9 [8] = assay: Growth inhibition of human PC9 cells grown under 3D anchorage-independent soft-agar conditions at 1.85 nM incubated for 14 days by alamar blue dye based assay relative to control; assay type: functional; conditions: PC-9, 336 h, read-out: GI
PC-9 [9] = assay: Growth inhibition of human PC9 cells grown under 3D anchorage-independent soft-agar conditions at 16.7 nM incubated for 14 days by alamar blue dye based assay relative to control; assay type: functional; conditions: PC-9, 336 h, read-out: GI
PC-9 [10] = assay: Growth inhibition of human PC9 cells grown under 3D anchorage-independent soft-agar conditions at 0.617 nM incubated for 14 days by alamar blue dye based assay relative to control; assay type: functional; conditions: PC-9, 336 h, read-out: GI
NCI-H358 = assay: Induction of apoptosis in human NCI-H358 cells grown under 3D anchorage-independent soft-agar conditions at grown under 3D anchorage-independent soft-agar conditions assessed as induction of PARP cleavage at 125 nM incubated for 48 hrs by mesoscale assay; assay type: functional, cell-based
[11] = molecular target: T1, Mitogen-activated protein kinase; ERK1/ERK2 (Homo sapiens) (UniProt P27361+P28482); assay: Inhibition of ERK1/2 phosphorylation at Thr202/Tyr204 residues in human MIAPaCa2 cells grown under 3D anchorage-independent soft-agar conditions at 50 nM incubated for 2 to 8 hrs by Western blotting analysis relative to control; assay type: cell-based
MIA PaCa-2 [12] = assay: Antitumor activity against human MIAPaCa2 cells grown under 3D anchorage-independent soft-agar conditions at xenografted in BomTacNMRI-Foxn1 nu mouse assessed as inhibition of tumor regression at 0.125 mg/kg, po BID relative to control; assay type: functional, organism-based
MIA PaCa-2 [13] = assay: Antitumor activity against human MIAPaCa2 cells grown under 3D anchorage-independent soft-agar conditions at xenografted in BomTacNMRI-Foxn1 nu mouse assessed as inhibition of tumor regression at 0.05 mg/kg, po BID relative to control; assay type: functional, organism-based
[14] = molecular target: T1, Mitogen-activated protein kinase; ERK1/ERK2 (Homo sapiens); assay: Inhibition of ERK1/2 phosphorylation in human MIAPaCa2 cells grown under 3D anchorage-independent soft-agar conditions at assessed as increase in MEK1/2 phosphorylation at Ser 217/221 residues at 25 nM incubated for 2 to 8 hrs by Western blotting analysis; assay type: cell-based

T1 sequence (P27361 whole entry, looked up): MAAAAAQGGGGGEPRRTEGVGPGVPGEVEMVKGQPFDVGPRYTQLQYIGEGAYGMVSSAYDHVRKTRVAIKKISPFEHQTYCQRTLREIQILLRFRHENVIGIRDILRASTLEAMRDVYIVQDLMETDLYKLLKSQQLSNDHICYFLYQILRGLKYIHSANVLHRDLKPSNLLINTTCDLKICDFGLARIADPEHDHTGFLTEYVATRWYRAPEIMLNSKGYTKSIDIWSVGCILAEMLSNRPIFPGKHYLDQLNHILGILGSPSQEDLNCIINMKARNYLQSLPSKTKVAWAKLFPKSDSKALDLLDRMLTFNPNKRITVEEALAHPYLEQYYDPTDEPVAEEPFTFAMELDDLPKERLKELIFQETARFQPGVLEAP
T1 sequence (P28482 whole entry, looked up): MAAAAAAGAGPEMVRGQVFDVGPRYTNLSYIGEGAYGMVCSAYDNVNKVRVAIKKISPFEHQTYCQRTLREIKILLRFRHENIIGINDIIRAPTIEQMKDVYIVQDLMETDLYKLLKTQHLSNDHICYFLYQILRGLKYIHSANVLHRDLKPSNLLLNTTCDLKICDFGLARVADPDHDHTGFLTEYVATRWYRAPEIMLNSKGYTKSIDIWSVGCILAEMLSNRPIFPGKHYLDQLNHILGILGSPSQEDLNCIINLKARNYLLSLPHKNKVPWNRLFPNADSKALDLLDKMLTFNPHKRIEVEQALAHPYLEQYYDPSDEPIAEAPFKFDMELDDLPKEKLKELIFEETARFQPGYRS

## COc1cc(F)c(F)c(Nc2ccc(I)cc2F)c1NS(=O)(=O)C1(C[C@H](O)CO)CC1 [REFAMETINIB]
A549 [1]
  inhibition of growth at 1.11 µM: 75%
A549 [2]
  inhibition of growth at 0.123 µM: 5%
A549 [3]
  inhibition of growth at 3.33 µM: 209%
A549 [4]
  inhibition of growth at 0.37 µM: 11%
A549 [5]
  inhibition of growth at 0.164 µM: 212%

## C#Cc1cccc(Nc2ncnc3cc(OCCOC)c(OCCOC)cc23)c1 [ERLOTINIB]
PC-9 [6]
  inhibition of growth at 0.00556 µM: 49%
PC-9 [7]
  inhibition of growth at 0.05 µM: 199%
PC-9 [8]
  inhibition of growth at 0.00185 µM: 12%
PC-9 [9]
  inhibition of growth at 0.0167 µM: 147%
PC-9 [10]
  inhibition of growth at 0.000617 µM: 0%

## CN(C)C/C=C/C(=O)Nc1cc2c(Nc3ccc(F)c(Cl)c3)ncnc2cc1O[C@H]1CCOC1
NCI-H358
  Activity: Active

## CC(=O)Nc1cccc(-n2c(=O)n(C3CC3)c(=O)c3c(Nc4ccc(I)cc4F)n(C)c(=O)c(C)c32)c1
[11]
  inhibition: 65 to 75%
MIA PaCa-2 [12]
  inhibition: inactive
MIA PaCa-2 [13]
  inhibition: inactive
[14]
  inhibition: Active
